Test results: patent publication US8822530B2, “Sulfur derivatives as chemokine receptor modulators” (Allergan, Inc., priority 2010, dated 2014)

These compounds were tested against T1, CCR2 receptor (Homo sapiens, UniProt P41597) (assay: Calcium activity assay on FLIPR Tetra in HEK-Gqi5 cells stably expressing CCR2).
T1 construct: expressed in transfected cells
Format: cell-based
Description: HEK-Gqi5 cells stably expressing CCR2 were cultured in DMEM high glucose, 10% FBS, 1% PSA, 400 μg/ml geneticin and 50 μg/ml hygromycin. Appropriate positive control chemokines (MCP-1, MIP1A or RANTES) was used as the positive control agonist for screening compound-induced calcium activity assayed on the FLIPR^Tetra. The drug plates were prepared in 384-well microplates using the EP3 and the MultiPROBE robotic liquid handling systems. Compounds were synthesized and tested for CCR2 activity.

T1 sequence (P41597 whole entry): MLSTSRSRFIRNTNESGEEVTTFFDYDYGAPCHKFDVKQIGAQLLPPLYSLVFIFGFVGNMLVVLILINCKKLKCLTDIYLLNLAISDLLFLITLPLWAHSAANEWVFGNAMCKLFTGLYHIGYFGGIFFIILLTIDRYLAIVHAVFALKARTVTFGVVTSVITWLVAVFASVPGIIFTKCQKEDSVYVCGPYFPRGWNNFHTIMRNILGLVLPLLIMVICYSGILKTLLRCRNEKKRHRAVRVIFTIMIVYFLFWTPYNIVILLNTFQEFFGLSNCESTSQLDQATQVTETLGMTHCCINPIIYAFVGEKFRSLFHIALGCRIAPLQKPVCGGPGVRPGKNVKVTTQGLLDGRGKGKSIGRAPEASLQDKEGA

| Compound | CCR2 % ANTAGONISM | IC50 |
| --- | --- | --- |
| O=C(NCCN1CCCC1)c1cccc(CS(=O)(=O)c2ccc(Cl)cc2NS(=O)(=O)c2ccc(Cl)c(C(F)(F)F)c2)c1 | 110% | 817 nM |
| CN(C)C(=O)c1ccccc1CSc1ccc(Cl)cc1NS(=O)(=O)c1ccc(Cl)c(C(F)(F)F)c1 [2-({[4-chloro-2-({[4-chloro-3-(trifluoromethyl)phenyl]sulfonyl}amino)phenyl]sulfanyl}methyl)-N,N-dimethylbenzamide] | 71% | 171 nM |
| CCNC(=O)c1ccccc1CSc1ccc(Cl)cc1NS(=O)(=O)c1ccc(Cl)c(C(F)(F)F)c1 [2-({[4-chloro-2-({[4-chloro-3-(trifluoromethyl)phenyl]sulfonyl}amino)phenyl]sulfanyl}methyl)-N-ethylbenzamide] | 92% | 149 nM |
| NC(=O)c1ccccc1CSc1ccc(Cl)cc1NS(=O)(=O)c1ccc(Cl)c(C(F)(F)F)c1 [2-({[4-chloro-2-({[4-chloro-3-(trifluoromethyl)phenyl]sulfonyl}amino)phenyl]sulfanyl}methyl)benzamide] | 88% | 167 nM |
| O=C(O)c1ccccc1CSc1ccc(Cl)cc1NS(=O)(=O)c1ccc(Cl)c(C(F)(F)F)c1 [2-({[4-chloro-2-({[4-chloro-3-(trifluoromethyl)phenyl]sulfonyl}amino)phenyl]sulfanyl}methyl)benzoic acid] | 99% | 79 nM |
| O=C(O)c1ccccc1C[S+]([O-])c1ccc(Cl)cc1NS(=O)(=O)c1ccc(Cl)c(C(F)(F)F)c1 (stereo not shown) [2-({[4-chloro-2-({[4-chloro-3-(trifluoromethyl)phenyl]sulfonyl}amino)phenyl]sulfinyl}methyl)benzoic acid] | 99% | 853 nM |
| O=C(O)c1ccccc1CS(=O)(=O)c1ccc(Cl)cc1NS(=O)(=O)c1ccc(Cl)c(C(F)(F)F)c1 [2-({[4-chloro-2-({[4-chloro-3-(trifluoromethyl)phenyl]sulfonyl}amino)phenyl]sulfonyl}methyl)benzoic acid] | 105% |  |
| O=C(O)c1ccccc1CSc1ccc(Cl)cc1NS(=O)(=O)c1cc2ccccc2o1 [2-[({2-[(1-benzofuran-2-ylsulfonyl)amino]-4-chlorophenyl}sulfanyl)methyl]benzoic acid] | 101% | 7 nM |
| O=C(O)c1ccccc1C[S+]([O-])c1ccc(Cl)cc1NS(=O)(=O)c1cc2ccccc2o1 (stereo not shown) [2-[({2-[(1-benzofuran-2-ylsulfonyl)amino]-4-chlorophenyl}sulfinyl)methyl]benzoic acid] | 98% | 806 nM |
| O=C(O)c1ccccc1CS(=O)(=O)c1ccc(Cl)cc1NS(=O)(=O)c1cc2ccccc2o1 [2-[({2-[(1-benzofuran-2-ylsulfonyl)amino]-4-chlorophenyl}sulfonyl)methyl]benzoic acid] | 96% |  |
| O=C(O)c1ccccc1CSc1ccc(F)cc1NS(=O)(=O)c1cc2ccccc2o1 [2-[({2-[(1-benzofuran-2-ylsulfonyl)amino]-4-fluorophenyl}sulfanyl)methyl]benzoic acid] | 99% | 11 nM |
| O=C(O)c1ccccc1C[S+]([O-])c1ccc(F)cc1NS(=O)(=O)c1cc2ccccc2o1 (stereo not shown) [2-[({2-[(1-benzofuran-2-ylsulfonyl)amino]-4-fluorophenyl}sulfinyl)methyl]benzoic acid] | 92% | 1850 nM |
| O=C(O)c1ccccc1CS(=O)(=O)c1ccc(F)cc1NS(=O)(=O)c1cc2ccccc2o1 [2-[({2-[(1-benzofuran-2-ylsulfonyl)amino]-4-fluorophenyl}sulfonyl)methyl]benzoic acid] | 89% | 2470 nM |
| O=C(O)CCSc1ccc(Cl)cc1NS(=O)(=O)c1cc2ccccc2o1 [3-({2-[(1-benzofuran-2-ylsulfonyl)amino]-4-chlorophenyl}sulfanyl)propanoic acid] | 99% | 46 nM |
| O=C(NCCN1CCCC1)c1cccc(CSc2ccc(Cl)cc2NS(=O)(=O)c2ccc(Cl)c(C(F)(F)F)c2)c1 [3-({[4-chloro-2-({[4-chloro-3-(trifluoromethyl)phenyl]sulfonyl}amino)phenyl]sulfanyl}methyl)-N-[2-(pyrrolidin-1-yl)ethyl]benzamide] | 97% | 2170 nM |
| O=C(O)c1cccc(CSc2ccc(Cl)cc2NS(=O)(=O)c2ccc(Cl)c(C(F)(F)F)c2)c1 [3-({[4-chloro-2-({[4-chloro-3-(trifluoromethyl)phenyl]sulfonyl}amino)phenyl]sulfanyl}methyl)benzoic acid] | 102% | 56 nM |
| O=C(NCCN1CCCC1)c1cccc(C[S+]([O-])c2ccc(Cl)cc2NS(=O)(=O)c2ccc(Cl)c(C(F)(F)F)c2)c1 (stereo not shown) [3-({[4-chloro-2-({[4-chloro-3-(trifluoromethyl)phenyl]sulfonyl}amino)phenyl]sulfinyl}methyl)-N-[2-(pyrrolidin-1-yl)ethyl]benzamide] | 105% | 910 nM |
| O=C(O)c1cccc(C[S+]([O-])c2ccc(Cl)cc2NS(=O)(=O)c2ccc(Cl)c(C(F)(F)F)c2)c1 (stereo not shown) [3-({[4-chloro-2-({[4-chloro-3-(trifluoromethyl)phenyl]sulfonyl}amino)phenyl]sulfinyl}methyl)benzoic acid] | 89% |  |
| O=C(NCC[N+]1([O-])CCCC1)c1cccc(CS(=O)(=O)c2ccc(Cl)cc2NS(=O)(=O)c2ccc(Cl)c(C(F)(F)F)c2)c1 [3-({[4-chloro-2-({[4-chloro-3-(trifluoromethyl)phenyl]sulfonyl}amino)phenyl]sulfonyl}methyl)-N-[2-(1-oxidopyrrolidin-1-yl)ethyl]benzamide] | 51% |  |
| O=C(O)c1cccc(CS(=O)(=O)c2ccc(Cl)cc2NS(=O)(=O)c2ccc(Cl)c(C(F)(F)F)c2)c1 [3-({[4-chloro-2-({[4-chloro-3-(trifluoromethyl)phenyl]sulfonyl}amino)phenyl]sulfonyl}methyl)benzoic acid] | 101% | 1580 nM |
| CCN(C)C(=O)CCSc1ccc(Cl)cc1NS(=O)(=O)c1ccc(Cl)cc1F [3-[(4-chloro-2-{[(4-chloro-2-fluorophenyl)sulfonyl]amino}phenyl)sulfanyl]-N-ethyl-N-methylpropanamide] | 49% |  |
| O=C(O)CCSc1ccc(Cl)cc1NS(=O)(=O)c1ccc(Cl)cc1F [3-[(4-chloro-2-{[(4-chloro-2-fluorophenyl)sulfonyl]amino}phenyl)sulfanyl]propanoic acid] | 102% | 129 nM |
| CCN(C)C(=O)CC[S+]([O-])c1ccc(Cl)cc1NS(=O)(=O)c1ccc(Cl)cc1F (stereo not shown) [3-[(4-chloro-2-{[(4-chloro-2-fluorophenyl)sulfonyl]amino}phenyl)sulfinyl]-N-ethyl-N-methylpropanamide] | 89% | 7520 nM |
| O=C(O)CC[S+]([O-])c1ccc(Cl)cc1NS(=O)(=O)c1ccc(Cl)cc1F (stereo not shown) [3-[(4-chloro-2-{[(4-chloro-2-fluorophenyl)sulfonyl]amino}phenyl)sulfinyl]propanoic acid] | 83% |  |
| CCN(C)C(=O)CCS(=O)(=O)c1ccc(Cl)cc1NS(=O)(=O)c1ccc(Cl)cc1F [3-[(4-chloro-2-{[(4-chloro-2-fluorophenyl)sulfonyl]amino}phenyl)sulfonyl]-N-ethyl-N-methylpropanamide] | 87% | 2260 nM |
| O=C(O)CCS(=O)(=O)c1ccc(Cl)cc1NS(=O)(=O)c1ccc(Cl)cc1F [3-[(4-chloro-2-{[(4-chloro-2-fluorophenyl)sulfonyl]amino}phenyl)sulfonyl]propanoic acid] | 90% |  |
| CCN(CC)C(=O)CC[S+]([O-])c1ccc(Cl)cc1NS(=O)(=O)c1ccc(Cl)c(C(F)(F)F)c1 (stereo not shown) [3-{[4-chloro-2-({[4-chloro-3-(trifluoromethyl)phenyl]sulfonyl}amino)phenyl]sulfinyl}-N,N-diethylpropanamide] | 56% | 1690 nM |
| CCN(CC)C(=O)CCS(=O)(=O)c1ccc(Cl)cc1NS(=O)(=O)c1ccc(Cl)c(C(F)(F)F)c1 [3-{[4-chloro-2-({[4-chloro-3-(trifluoromethyl)phenyl]sulfonyl}amino)phenyl]sulfonyl}-N,N-diethylpropanamide] | 61% | 1860 nM |
| O=C(NCC[N+]1([O-])CCCC1)c1ccc(CSc2ccc(Cl)cc2NS(=O)(=O)c2ccc(Cl)c(C(F)(F)F)c2)cc1 [4-({[4-chloro-2-({[4-chloro-3-(trifluoromethyl)phenyl]sulfonyl}amino)phenyl]sulfanyl}methyl)-N-[2-(1-oxidopyrrolidin-1-yl)ethyl]benzamide] | 31% |  |
| O=C(NCCN1CCCC1)c1ccc(CSc2ccc(Cl)cc2NS(=O)(=O)c2ccc(Cl)c(C(F)(F)F)c2)cc1 [4-({[4-chloro-2-({[4-chloro-3-(trifluoromethyl)phenyl]sulfonyl}amino)phenyl]sulfanyl}methyl)-N-[2-(pyrrolidin-1-yl)ethyl]benzamide] | 75% | 2320 nM |
